Structures can show the parent of a compound that is named as a salt.
Compound | melting point
N#Cc1ccc2[nH]cc(CCCN(C3CCC3)[C@H]3COc4c(F)ccc(C(N)=O)c4C3)c2c1 (as salt: hydrochloride) [Compound 97b, (3R)-3-[[3-(5-cyano-1H-indol-3-yl)propyl](cyclobutyl)amino]-8-fluorochromane-5-carboxamide] | 166 to 171 °C (dec.)
N#Cc1ccc2[nH]cc(CCCN(CC3CC3)[C@H]3COc4c(F)ccc(C(N)=O)c4C3)c2c1 (as salt: hydrochloride) [Compound 98b, (3R)-3-[[3-(5-cyano-1H-indol-3-yl)propyl](cyclopropylmethyl)amino]-8-fluorochromane-5-carboxamide] | 160 to 167 °C (dec.)
COc1cccc2c(CCCNC3COc4c(F)ccc(C(N)=O)c4C3)c[nH]c12 (stereo not drawn) (as salt: hydrochloride) [Compound 99, 8-fluoro-3-{[3-(7-methoxy-1H-indol-3-yl)propyl]amino}chromane-5-carboxamide] | 196 to 198 °C
CCCN(CCCc1c[nH]c2c(OC)cccc12)C1COc2c(F)ccc(C(N)=O)c2C1 (stereo not drawn) (as salt: hydrochloride) [Compound 100, 8-fluoro-3-[[3-(7-methoxy-1H-indol-3-yl)propyl](propyl)amino]chromane-5-carboxamide] | 158 to 164 °C (dec.)
CCN(CCCc1c[nH]c2c(OC)cccc12)C1COc2c(F)ccc(C(N)=O)c2C1 (stereo not drawn) (as salt: hydrochloride) [Compound 101, 3-{ethyl[3-(7-methoxy-1H-indol-3-yl)propyl]amino}-8-fluorochromane-5-carboxamide] | 148 to 153 °C (dec.)
COc1cccc2c(CCCN(C3CCC3)C3COc4c(F)ccc(C(N)=O)c4C3)c[nH]c12 (stereo not drawn) (as salt: hydrochloride) [Compound 102, 3-{cyclobutyl[3-(7-methoxy-1H-indol-3-yl)propyl]amino}-8-fluorochromane-5-carboxamide] | 156 to 162 °C (dec.)
COc1cccc2c(CCCN(CC3CC3)C3COc4c(F)ccc(C(N)=O)c4C3)c[nH]c12 (stereo not drawn) (as salt: hydrochloride) [Compound 103, 3-{(cyclopropylmethyl)[3-(7-methoxy-1H-indol-3-yl)propyl]amino}-8-fluorochromane-5-carboxamide] | 152 to 158 °C (dec.)
COc1ccc2[nH]cc(CCCNC3COc4c(F)ccc(C(N)=O)c4C3)c2c1 (stereo not drawn) (as salt: hydrochloride) [Compound 104, 8-fluoro-3-{[3-(5-methoxy-1H-indol-3-yl)propyl]amino}chromane-5-carboxamide] | 171 to 176 °C (dec.)
CCN(CCCc1c[nH]c2ccc(OC)cc12)C1COc2c(F)ccc(C(N)=O)c2C1 (stereo not drawn) (as salt: hydrochloride) [Compound 105, 3-{ethyl[3-(5-methoxy-1H-indol-3-yl)propyl]amino}-8-fluorochromane-5-carboxamide] | 154 to 162 °C (dec.)
CCCN(CCCc1c[nH]c2ccc(OC)cc12)C1COc2c(F)ccc(C(N)=O)c2C1 (stereo not drawn) (as salt: hydrochloride) [Compound 106, 8-fluoro-3-[[3-(5-methoxy-1H-indol-3-yl)propyl](propyl)amino]chromane-5-carboxamide] | 145 to 152 °C (dec.)
COc1ccc2[nH]cc(CCCN(C3CCC3)C3COc4c(F)ccc(C(N)=O)c4C3)c2c1 (stereo not drawn) (as salt: hydrochloride) [Compound 107, 3-{cyclobutyl[3-(5-methoxy-1H-indol-3-yl)propyl]amino}-8-fluorochromane-5-carboxamide] | 151 to 158 °C (dec.)
COc1ccc2[nH]cc(CCCN(CC3CC3)C3COc4c(F)ccc(C(N)=O)c4C3)c2c1 (stereo not drawn) (as salt: hydrochloride) [Compound 108, 3-{(cyclopropylmethyl)[3-(5-methoxy-1H-indol-3-yl)propyl]amino}-8-fluorochromane-5-carboxamide] | 148 to 154 °C (dec.)
NC(=O)c1ccc(F)c2c1CC(NCCCc1c[nH]c3c(Cl)cccc13)CO2 (stereo not drawn) (as salt: hydrochloride) [Compound 109, 3-{[3-(7-chloro-1H-indol-3-yl)propyl]amino}-8-fluorochromane-5-carboxamide] | 222 to 224 °C
CCN(CCCc1c[nH]c2c(Cl)cccc12)C1COc2c(F)ccc(C(N)=O)c2C1 (stereo not drawn) (as salt: hydrochloride) [Compound 110, 3-[[3-(7-chloro-1H-indol-3-yl)propyl](ethyl)amino]-8-fluorochromane-5-carboxamide] | 146 to 152 °C (dec.)
NC(=O)c1ccc(F)c2c1CC(N(CCCc1c[nH]c3c(Cl)cccc13)C1CCC1)CO2 (stereo not drawn) (as salt: hydrochloride) [Compound 111, 3-[[3-(7-chloro-1H-indol-3-yl)propyl](cyclobutyl)amino]-8-fluorochromane-5-carboxamide] | 154 to 163 °C (dec.)
NC(=O)c1ccc(F)c2c1CC(N(CCCc1c[nH]c3ccc(Cl)cc13)C1CCC1)CO2 (stereo not drawn) (as salt: hydrochloride) [Compound 117, 3-[[3-(5-chloro-1H-indol-3-yl)propyl](cyclobutyl)amino]-8-fluorochromane-5-carboxamide] | 152 to 160 °C (dec.)

Continued, values first:

melting point | Compound
147 to 155 °C (dec.) | NC(=O)c1ccc(F)c2c1CC(N(CCCc1c[nH]c3c(Cl)cccc13)CC1CC1)CO2 (stereo not drawn) (as salt: hydrochloride) [Compound 112, 3-[[3-(7-chloro-1H-indol-3-yl)propyl](cyclopropylmethyl)amino]-8-fluorochromane-5-carboxamide]
145 to 154 °C (dec.) | CCCN(CCCc1c[nH]c2c(Cl)cccc12)C1COc2c(F)ccc(C(N)=O)c2C1 (stereo not drawn) (as salt: hydrochloride) [Compound 113, 3-[[3-(7-chloro-1H-indol-3-yl)propyl](propyl)amino]-8-fluorochromane-5-carboxamide]
218 to 221 °C | NC(=O)c1ccc(F)c2c1CC(NCCCc1c[nH]c3ccc(Cl)cc13)CO2 (stereo not drawn) (as salt: hydrochloride) [Compound 114, 3-{[3-(5-chloro-1H-indol-3-yl)propyl]amino}-8-fluorochromane-5-carboxamide]
149 to 156 °C (dec.) | CCN(CCCc1c[nH]c2ccc(Cl)cc12)C1COc2c(F)ccc(C(N)=O)c2C1 (stereo not drawn) (as salt: hydrochloride) [Compound 115, 3-[[3-(5-chloro-1H-indol-3-yl)propyl](ethyl)amino]-8-fluorochromane-5-carboxamide]
148 to 154 °C (dec.) | CCCN(CCCc1c[nH]c2ccc(Cl)cc12)C1COc2c(F)ccc(C(N)=O)c2C1 (stereo not drawn) (as salt: hydrochloride) [Compound 116, 3-[[3-(5-chloro-1H-indol-3-yl)propyl](propyl)amino]-8-fluorochromane-5-carboxamide]
150 to 158 °C (dec.) | NC(=O)c1ccc(F)c2c1CC(N(CCCc1c[nH]c3ccc(Cl)cc13)CC1CC1)CO2 (stereo not drawn) (as salt: hydrochloride) [Compound 118, 3-[[3-(5-chloro-1H-indol-3-yl)propyl](cyclopropylmethyl)amino]-8-fluorochromane-5-carboxamide]
124 °C (dec.) | NC(=O)c1ccc(F)c2c1OCC(NCCCc1c[nH]c3ccc(F)cc13)C2 (stereo not drawn) (as salt: hydrochloride) [Compound 119, 5-fluoro-3-{[3-(5-fluoro-1H-indol-3-yl)propyl]amino}chromane-8-carboxamide]
123 °C (dec.) | CCCN(CCCc1c[nH]c2ccc(F)cc12)C1COc2c(C(N)=O)ccc(F)c2C1 (stereo not drawn) (as salt: hydrochloride) [Compound 120, 5-fluoro-3-[[3-(5-fluoro-1H-indol-3-yl)propyl](propyl)amino]chromane-8-carboxamide]
123 °C (dec.) | NC(=O)c1ccc(F)c2c1OCC(N(CCCc1c[nH]c3ccc(F)cc13)CC1CC1)C2 (stereo not drawn) (as salt: hydrochloride) [Compound 121, 3-{(cyclopropylmethyl)[3-(5-fluoro-1H-indol-3-yl)propyl]amino}-5-fluorochromane-8-carboxamide]
132 °C (dec.) | NC(=O)c1ccc(F)c2c1OCC(N(CCCc1c[nH]c3ccc(F)cc13)C1CCC1)C2 (stereo not drawn) (as salt: hydrochloride) [Compound 122, 3-{cyclobutyl[3-(5-fluoro-1H-indol-3-yl)propyl]amino}-5-fluorochromane-8-carboxamide]
119 °C (dec.) | NC(=O)c1ccc(F)c2c1OCC(NCCCCc1c[nH]c3ccc(F)cc13)C2 (stereo not drawn) (as salt: hydrochloride) [Compound 123, 5-fluoro-3-{[4-(5-fluoro-1H-indol-3-yl)butyl]amino}chromane-8-carboxamide]
116 °C (dec.) | CCCN(CCCCc1c[nH]c2ccc(F)cc12)C1COc2c(C(N)=O)ccc(F)c2C1 (stereo not drawn) (as salt: hydrochloride) [Compound 124, 5-fluoro-3-[[4-(5-fluoro-1H-indol-3-yl)butyl](propyl)amino]chromane-8-carboxamide]
116 °C (dec.) | NC(=O)c1ccc(F)c2c1OCC(N(CCCCc1c[nH]c3ccc(F)cc13)CC1CC1)C2 (stereo not drawn) (as salt: hydrochloride) [Compound 125, 3-{(cyclopropylmethyl)[4-(5-fluoro-1H-indol-3-yl)butyl]amino}-5-fluorochromane-8-carboxamide]
130 °C (dec.) | NC(=O)c1ccc(F)c2c1OCC(N(CCCCc1c[nH]c3ccc(F)cc13)C1CCC1)C2 (stereo not drawn) (as salt: hydrochloride) [Compound 126, 3-{cyclobutyl[4-(5-fluoro-1H-indol-3-yl)butyl]amino}-5-fluorochromane-8-carboxamide]
112 °C (dec.) | CCN(CCCCc1c[nH]c2ccc(F)cc12)C1COc2c(C(N)=O)ccc(F)c2C1 (stereo not drawn) (as salt: hydrochloride) [Compound 127, 3-{ethyl[4-(5-fluoro-1H-indol-3-yl)butyl]amino}-5-fluorochromane-8-carboxamide]
149 °C (dec.) | NC(=O)c1ccc(F)c2c1OCC(NCCCc1c[nH]c3c(F)cc(F)cc13)C2 (stereo not drawn) (as salt: hydrochloride) [Compound 128, 3-{[3-(5,7-difluoro-1H-indol-3-yl)propyl]amino}-5-fluorochromane-8-carboxamide]
130 °C (dec.) | CCCN(CCCc1c[nH]c2c(F)cc(F)cc12)C1COc2c(C(N)=O)ccc(F)c2C1 (stereo not drawn) (as salt: hydrochloride) [Compound 129, 3-[[3-(5,7-difluoro-1H-indol-3-yl)propyl](propyl)amino]-5-fluorochromane-8-carboxamide]
